According to ChEMBL document CHEMBL1139242, “Peptide deformylase inhibitors of Mycobacterium tuberculosis: synthesis, structural investigations, and biological results” (Bioorg Med Chem Lett, 2008):
≈ marks a conversion by molar mass, not a printed value.

Experiments:
[1] = target: T1, Peptide deformylase (Mycobacterium tuberculosis, UniProt P9WIJ3); assay: Inhibition of Mycobacterium tuberculosis peptide deformylase expressed in Escherichia coli M15(pREp4) by microplate assay
T1 sequence (P9WIJ3 whole entry): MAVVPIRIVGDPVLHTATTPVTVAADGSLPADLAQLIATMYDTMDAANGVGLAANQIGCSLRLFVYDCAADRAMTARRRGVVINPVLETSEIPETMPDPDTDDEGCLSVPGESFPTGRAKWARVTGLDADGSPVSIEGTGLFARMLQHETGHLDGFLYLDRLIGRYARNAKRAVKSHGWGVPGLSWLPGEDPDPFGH

[2] = system: Mycobacterium tuberculosis; assay: Antitubercular activity against Mycobacterium tuberculosis H37Rv after 14 days by turbidimetric assay; format: functional; conditions: 336 h

SMILES	IC50 [1] [nM]	MIC [2] [µg/mL]
CCC[C@H](CN(O)C=O)C(=O)N1CCC[C@H]1c1nc2ccccc2[nH]1	24	
CCCC[C@H](CC(=O)O)C(=O)N1CCC[C@H]1c1nc2ccccc2[nH]1	202	
CCCCC[C@H](CN(O)C=O)C(=O)N1CCC[C@H]1c1nc2ccccc2o1	13	
CCCC[C@H](CN(O)C=O)C(=O)N1CCC[C@H]1C(=O)Nc1ccccn1		0.2 (≈ 0.552 µM)
COc1c(N2CCNC(C)C2)c(F)cc2c(=O)c(C(=O)O)cn(C3CC3)c12 (centres undefined) [GATIFLOXACIN]		0.07 (≈ 0.186 µM)
CCCC[C@H](CN(O)C=O)C(=O)N1CCC[C@H]1c1nc2ccccc2[nH]1	10	0.1 (≈ 0.279 µM)
CCC[C@H](CN(O)C=O)C(=O)N1CCC[C@H]1c1nc2ccccc2o1	28	
CCCCC[C@H](CN(O)C=O)C(=O)N1CCC[C@H]1c1nc2ccccc2[nH]1	15	
CCCC[C@H](CN(O)C=O)C(=O)N1CCC[C@H]1c1nc2ccccc2o1		0.15 (≈ 0.417 µM)
O=CN(O)C[C@@H](CC1CC1)C(=O)N1CCC[C@H]1c1nc2ccccc2o1	21	0.2 (≈ 0.56 µM)
O=CN(O)C[C@@H](CC1CC1)C(=O)N1CCC[C@H]1c1nc2ccccc2[nH]1	8	0.05 (≈ 0.14 µM)
CCCC[C@H](C(=O)NO)C(=O)N1CCC[C@H]1c1nc2ccccc2[nH]1	18	
O=CN(O)C[C@@H](Cc1ccccc1)C(=O)N1CCC[C@H]1c1nc2ccccc2o1	161	
CCCC[C@H](C(=O)NO)C(=O)N1CCC[C@H]1c1nc2ccccc2o1	49	
CCCC[C@H](CC(=O)O)C(=O)N1CCC[C@H]1c1nc2ccccc2o1	803	
O=CN(O)C[C@@H](Cc1ccccc1)C(=O)N1CCC[C@H]1c1nc2ccccc2[nH]1	68	
